Experimental data from PubChem BioAssay AID328 (DTP/NCI, 2004).
Values joined by “and” are separate entries in the source; they are usually repeats but may differ in a detail not shown here. Equal entries are not always repeated. Inconclusive results and toxic doses are left out.

System: BDF1 mice, P388 leukemia ip, median survival T/C
Assay: NCI In Vivo Anticancer Drug Screen. Data for tumor model P388 Leukemia (intraperitoneal) in B6D2F1 (BDF1) mice
Conditions: endpoint: median survival time, higher = longer survival
Outline: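 Mice carrying the transplantable tumour receive compound or vehicle. Survival is followed in each arm, and the treated measure is divided by the vehicle measure.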

[1] = dose: 5.0 mg/kg/injection, schedule: Q04DX003 (ip), vehicle: Klucel (hydroxypropylcellulose) (HPC)
[2] = dose: 10.0 mg/kg/injection, schedule: Q04DX003 (ip), vehicle: Klucel (hydroxypropylcellulose) (HPC)
[3] = dose: 100.0 mg/kg/injection, schedule: Q04DX003 (ip), vehicle: saline with Tween-80
[4] = dose: 50.0 mg/kg/injection, schedule: Q01DX009 (ip), vehicle: saline
[5] = dose: 100.0 mg/kg/injection, schedule: Q01DX009 (ip), vehicle: saline
[6] = dose: 2.5 mg/kg/injection, schedule: Q01DX009 (ip), vehicle: water
[7] = dose: 5.0 mg/kg/injection, schedule: Q01DX009 (ip), vehicle: water
[8] = dose: 20.0 mg/kg/injection, schedule: Q01DX009 (ip), vehicle: water
[9] = dose: 100.0 mg/kg/injection, schedule: Q04DX003 (ip), vehicle: Klucel (hydroxypropylcellulose) (HPC)
[10] = dose: 200.0 mg/kg/injection, schedule: Q01DX009 (ip), vehicle: Klucel (hydroxypropylcellulose) (HPC)
[11] = dose: 200.0 mg/kg/injection, schedule: Q04DX003 (ip), vehicle: Klucel (hydroxypropylcellulose) (HPC)
[12] = dose: 400.0 mg/kg/injection, schedule: Q01DX009 (ip), vehicle: Klucel (hydroxypropylcellulose) (HPC)
[13] = dose: 400.0 mg/kg/injection, schedule: Q04DX003 (ip), vehicle: Klucel (hydroxypropylcellulose) (HPC)

## CC1=CCC2C(=O)C=CC(=O)C2C1 (centres undefined)
dose: 0.57 mg/kg/injection, schedule: Q01DX009 (ip), vehicle: Klucel (hydroxypropylcellulose) (HPC)
  T/C: 120 % of control
dose: 0.85 mg/kg/injection, schedule: Q01DX009 (ip), vehicle: Klucel (hydroxypropylcellulose) (HPC)
  T/C: 115 % of control
dose: 2.0 mg/kg/injection, schedule: Q01DX009 (ip), vehicle: Klucel (hydroxypropylcellulose) (HPC)
  T/C: 118 % of control
dose: 3.12 mg/kg/injection, schedule: Q04DX003 (ip), vehicle: Klucel (hydroxypropylcellulose) (HPC)
  T/C: 100 % of control
dose: 4.12 mg/kg/injection, schedule: Q01DX009 (ip), vehicle: Klucel (hydroxypropylcellulose) (HPC)
  T/C: 109 % of control and 110 % of control
[1]
  T/C: 104 % of control
dose: 6.25 mg/kg/injection, schedule: Q01DX009 (ip), vehicle: Klucel (hydroxypropylcellulose) (HPC)
  T/C: 95 % of control and 120 % of control
dose: 6.25 mg/kg/injection, schedule: Q04DX003 (ip), vehicle: Klucel (hydroxypropylcellulose) (HPC)
  T/C: 109 % of control
dose: 9.37 mg/kg/injection, schedule: Q01DX009 (ip), vehicle: Klucel (hydroxypropylcellulose) (HPC)
  T/C: 104 % of control and 115 % of control
[2]
  T/C: 109 % of control
dose: 12.5 mg/kg/injection, schedule: Q01DX009 (ip), vehicle: Klucel (hydroxypropylcellulose) (HPC)
  T/C: 90 % of control
dose: 12.5 mg/kg/injection, schedule: Q04DX003 (ip), vehicle: Klucel (hydroxypropylcellulose) (HPC)
  T/C: 90 % of control
dose: 18.0 mg/kg/injection, schedule: Q01DX009 (ip), vehicle: Klucel (hydroxypropylcellulose) (HPC)
  T/C: 113 % of control

## N=C(N)N1CCNc2ccccc2C1
[3]
  T/C: 99 % of control

## CC1CC(OC(=O)CCN2CC2)CC(C)(C)C1 (centres undefined)
[1]
  T/C: 95 % of control and 109 % of control
[2]
  T/C: 104 % of control
dose: 20.0 mg/kg/injection, schedule: Q04DX003 (ip), vehicle: Klucel (hydroxypropylcellulose) (HPC)
  T/C: 100 % of control

## Cc1ccc(S(=O)(=O)N2CCC(C(=O)O)(c3ccccc3)CC2)cc1
[3]
  T/C: 100 % of control
dose: 200.0 mg/kg/injection, schedule: Q04DX003 (ip), vehicle: saline with Tween-80
  T/C: 95 % of control
dose: 400.0 mg/kg/injection, schedule: Q04DX003 (ip), vehicle: saline with Tween-80
  T/C: 95 % of control

## CCO/C=C1\SC(=S)N(Cc2ccccc2)C1=O
dose: 12.5 mg/kg/injection, schedule: Q01DX009 (ip), vehicle: other
  T/C: 86 % of control
dose: 25.0 mg/kg/injection, schedule: Q01DX009 (ip), vehicle: other
  T/C: 109 % of control
dose: 44.0 mg/kg/injection, schedule: Q04DX003 (ip), vehicle: other
  T/C: 118 % of control
dose: 44.0 mg/kg/injection, schedule: Q04DX003 (ip), vehicle: saline + alcohol
  T/C: 100 % of control
dose: 44.0 mg/kg/injection, schedule: Q04DX003 (ip), vehicle: saline with Tween-80
  T/C: 118 % of control
dose: 100.0 mg/kg/injection, schedule: Q04DX003 (ip), vehicle: saline + alcohol
  T/C: 104 % of control
dose: 150.0 mg/kg/injection, schedule: Q04DX003 (ip), vehicle: other
  T/C: 154 % of control
dose: 150.0 mg/kg/injection, schedule: Q04DX003 (ip), vehicle: saline + alcohol
  T/C: 95 % of control
dose: 150.0 mg/kg/injection, schedule: Q04DX003 (ip), vehicle: saline with Tween-80
  T/C: 116 % of control

## Cc1ncc(CO)c(/C=N/OCc2ccc(OCc3ccccc3)cc2)c1O
dose: 50.0 mg/kg/injection, schedule: Q04DX003 (ip), vehicle: saline sonified
  T/C: 100 % of control
dose: 100.0 mg/kg/injection, schedule: Q04DX003 (ip), vehicle: saline sonified
  T/C: 100 % of control
dose: 200.0 mg/kg/injection, schedule: Q04DX003 (ip), vehicle: saline sonified
  T/C: 95 % of control

## CC[C@H](C)c1occ2c(O)c(C(=O)O)c(=O)cc-2c1C
dose: 6.0 mg/kg/injection, schedule: Q01DX009 (ip), vehicle: Klucel (hydroxypropylcellulose) (HPC)
  T/C: 100 % of control
dose: 12.0 mg/kg/injection, schedule: Q01DX009 (ip), vehicle: Klucel (hydroxypropylcellulose) (HPC)
  T/C: 118 % of control
dose: 25.0 mg/kg/injection, schedule: Q01DX009 (ip), vehicle: Klucel (hydroxypropylcellulose) (HPC)
  T/C: 118 % of control

## NCCCC(NC(=O)CCCCCCCCN=C(N)N)C(O)CCCCCCCCN=C(N)N (centres undefined)
dose: 3.75 mg/kg/injection, schedule: Q01DX010 (ip), vehicle: saline
  T/C: 91 % of control

## COc1cccc2c1C(=O)c1c(O)c3c(c(O)c1C2=O)C[C@@](O)(/C(C)=N/NC(=O)c1ccc(O)cc1)C[C@@H]3OC1CC(N)C(O)C(C)O1 (some centres undefined)
dose: 0.25 mg/kg/injection, schedule: Q01DX009 (ip), vehicle: water
  T/C: 120 % of control
dose: 1.0 mg/kg/injection, schedule: Q01DX009 (ip), vehicle: water
  T/C: 164 % of control and 223 % of control
dose: 2.0 mg/kg/injection, schedule: Q01DX009 (ip), vehicle: water
  T/C: 156 % of control and 207 % of control
dose: 4.0 mg/kg/injection, schedule: Q01DX009 (ip), vehicle: water
  T/C: 224 % of control and 225 % of control
dose: 8.0 mg/kg/injection, schedule: Q01DX009 (ip), vehicle: water
  T/C: 245 % of control

## CC[N+](CC)(CC)CC[N+](CC)(CC)CC
[4]
  T/C: 95 % of control
[5]
  T/C: 96 % of control and 88 % of control
dose: 200.0 mg/kg/injection, schedule: Q01DX009 (ip), vehicle: saline
  T/C: 95 % of control and 91 % of control

## CSc1ccc(C(O)CNC(C)C)cc1C (centres undefined)
[4]
  T/C: 100 % of control
[5]
  T/C: 100 % of control

## CC12CCCCC1=Nc1ccc3ccccc3c12 (centres undefined)
dose: 100.0 mg/kg/injection, schedule: Q01DX009 (ip), vehicle: saline + alcohol
  T/C: 93 % of control

## COc1cccc2c1C(=O)c1c(O)c3c(c(O)c1C2=O)C[C@@](O)(C(C)O)C[C@@H]3OC1CC(N(Cc2ccccc2)Cc2ccccc2)C(O)C(C)O1 (some centres undefined)
[6]
  T/C: 108 % of control
[7]
  T/C: 112 % of control
[8]
  T/C: 166 % of control
dose: 40.0 mg/kg/injection, schedule: Q01DX009 (ip), vehicle: water
  T/C: 229 % of control

## CC(C)CC(C)CC(O)CC(C)C (centres undefined)
dose: 100.0 mg/kg/injection, schedule: Q01DX009 (ip), vehicle: Klucel (hydroxypropylcellulose) (HPC)
  T/C: 110 % of control
[9]
  T/C: 100 % of control
[10]
  T/C: 100 % of control
[11]
  T/C: 100 % of control
[12]
  T/C: 115 % of control
[13]
  T/C: 95 % of control

## CCOc1ccc(Br)cc1/C=C1\N=C(c2ccccc2)OC1=O
[9]
  T/C: 95 % of control
[11]
  T/C: 100 % of control
[13]
  T/C: 95 % of control

## COc1cc([N+](=O)[O-])c2c(ccc[n+]2C)c1OC
dose: 50.0 mg/kg/injection, schedule: Q01DX001 (ip), vehicle: saline with Tween-80
  T/C: 100 % of control
dose: 100.0 mg/kg/injection, schedule: Q01DX001 (ip), vehicle: saline with Tween-80
  T/C: 91 % of control
dose: 200.0 mg/kg/injection, schedule: Q01DX001 (ip), vehicle: saline with Tween-80
  T/C: 112 % of control

## Cc1cc(N(c2c(Cl)c(Cl)c(NS(=O)(=O)c3ccccc3)c(Cl)c2Cl)S(=O)(=O)c2ccccc2)cc(C)c1N
[9]
  T/C: 96 % of control
[10]
  T/C: 92 % of control
[11]
  T/C: 96 % of control
[12]
  T/C: 96 % of control
[13]
  T/C: 88 % of control

## Cn1cnc([N+](=O)[O-])c1[Se]c1ncnc2c1ncn2C1OC(CO)C(O)C1O (centres undefined)
dose: 6.25 mg/kg/injection, schedule: Q01DX009 (ip), vehicle: saline
  T/C: 105 % of control
dose: 12.5 mg/kg/injection, schedule: Q01DX009 (ip), vehicle: saline
  T/C: 113 % of control
dose: 12.5 mg/kg/injection, schedule: Q04DX003 (ip), vehicle: saline
  T/C: 113 % of control
dose: 25.0 mg/kg/injection, schedule: Q01DX009 (ip), vehicle: saline
  T/C: 102 % of control
dose: 25.0 mg/kg/injection, schedule: Q04DX003 (ip), vehicle: saline
  T/C: 100 % of control and 104 % of control
dose: 50.0 mg/kg/injection, schedule: Q04DX003 (ip), vehicle: saline
  T/C: 100 % of control and 113 % of control
dose: 100.0 mg/kg/injection, schedule: Q04DX003 (ip), vehicle: saline
  T/C: 100 % of control
dose: 200.0 mg/kg/injection, schedule: Q04DX003 (ip), vehicle: saline
  T/C: 100 % of control

## Cl
dose: 0.62 mg/kg/injection, schedule: Q01DX009 (ip), vehicle: water
  T/C: 100 % of control
dose: 1.25 mg/kg/injection, schedule: Q01DX009 (ip), vehicle: water
  T/C: 90 % of control
[6]
  T/C: 104 % of control
[7]
  T/C: 95 % of control
dose: 10.0 mg/kg/injection, schedule: Q01DX009 (ip), vehicle: water
  T/C: 100 % of control
[8]
  T/C: 100 % of control
dose: 25.0 mg/kg/injection, schedule: Q01DX009 (ip), vehicle: water
  T/C: 90 % of control
dose: 50.0 mg/kg/injection, schedule: Q01DX009 (ip), vehicle: water
  T/C: 104 % of control
